The record followed here is ChEMBL document CHEMBL2062423 (ACS Med Chem Lett, 2012).

Activity calls are given as the source filed them. The rule behind the calls is not given here.

Assay [1] has as its target Sodium-dependent dopamine transporter (Homo sapiens, UniProt Q01959). Kind of assay: Displacement of [3H]WIN-35,428 from human DAT expressed in mouse N2A cells after 15 mins by liquid scintillation counting. In kind it is cell-based.
Assay [2] deals with Sodium-dependent dopamine transporter (Rattus norvegicus) (UniProt P23977). Kind of assay: Binding affinity to DAT in rat striatal membrane at 10 nM incubated for 1.5 hrs prior to irradiation measured after 5 mins by photoaffinity labeling-based autoradiographic analysis. In kind it is cell membranes. The settings on record: Striatum, tested as the 125I-labelled form.
Sodium-dependent dopamine transporter (Rattus norvegicus), sequence (P23977 whole entry): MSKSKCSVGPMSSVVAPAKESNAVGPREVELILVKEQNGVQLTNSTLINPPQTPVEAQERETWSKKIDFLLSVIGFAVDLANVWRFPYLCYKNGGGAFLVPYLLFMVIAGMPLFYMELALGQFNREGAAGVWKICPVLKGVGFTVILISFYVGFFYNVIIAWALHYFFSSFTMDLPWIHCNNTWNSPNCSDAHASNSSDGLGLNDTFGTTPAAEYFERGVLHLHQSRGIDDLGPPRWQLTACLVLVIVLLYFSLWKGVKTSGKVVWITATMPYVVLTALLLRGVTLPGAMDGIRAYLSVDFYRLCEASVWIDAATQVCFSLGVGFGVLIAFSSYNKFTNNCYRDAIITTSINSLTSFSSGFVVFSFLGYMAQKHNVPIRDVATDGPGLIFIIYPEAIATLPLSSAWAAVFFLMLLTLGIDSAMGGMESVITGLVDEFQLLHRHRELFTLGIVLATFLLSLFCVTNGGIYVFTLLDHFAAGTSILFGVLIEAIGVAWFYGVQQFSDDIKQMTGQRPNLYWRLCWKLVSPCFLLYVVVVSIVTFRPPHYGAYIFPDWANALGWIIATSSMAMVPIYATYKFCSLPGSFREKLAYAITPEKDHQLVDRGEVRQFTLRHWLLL
Assay [3] has the same target. Kind of assay: Binding affinity to DAT in rat striatal membrane at 10 nM incubated for 1.5 hrs prior to irradiation measured after 5 mins by photoaffinity labeling-based autoradiographic analysis in presence of (-)-cocaine. The settings on record: Striatum, tested as the 125I-labelled form. Type of assay: cell membranes.
Assay [4] has the same target. Kind of assay: Binding affinity to DAT in rat striatal membrane at 10 nM incubated for 1.5 hrs prior to irradiation measured after 5 mins by photoaffinity labeling-based autoradiographic analysis in presence of D-methylphenidate. In kind it is cell membranes. The conditions noted are these: Striatum, tested as the 125I-labelled form.

Sodium-dependent dopamine transporter, sequence (Q01959 whole entry): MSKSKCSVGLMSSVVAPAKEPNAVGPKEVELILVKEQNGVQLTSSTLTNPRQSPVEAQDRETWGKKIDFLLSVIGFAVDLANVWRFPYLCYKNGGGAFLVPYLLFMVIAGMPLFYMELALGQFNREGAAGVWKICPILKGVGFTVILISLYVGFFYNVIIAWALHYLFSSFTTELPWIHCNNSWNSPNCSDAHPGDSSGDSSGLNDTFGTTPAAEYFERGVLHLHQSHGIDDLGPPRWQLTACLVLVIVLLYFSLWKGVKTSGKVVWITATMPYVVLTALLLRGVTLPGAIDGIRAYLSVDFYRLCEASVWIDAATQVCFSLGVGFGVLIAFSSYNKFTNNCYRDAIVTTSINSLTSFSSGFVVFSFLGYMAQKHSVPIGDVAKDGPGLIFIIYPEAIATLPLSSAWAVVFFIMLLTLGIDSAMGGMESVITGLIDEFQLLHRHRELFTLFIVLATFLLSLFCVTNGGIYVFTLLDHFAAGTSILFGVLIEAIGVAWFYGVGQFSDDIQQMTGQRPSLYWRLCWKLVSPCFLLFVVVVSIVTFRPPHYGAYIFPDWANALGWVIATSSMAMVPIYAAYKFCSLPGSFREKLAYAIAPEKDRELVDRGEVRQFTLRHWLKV

As a reminder, the Ki is a dissociation constant, usually derived from enzyme kinetics or from competition with a known ligand. A high value points to weaker binding. In assay [1], `COC(=O)[C@H](c1ccc(Cl)c(Cl)c1)[C@H]1CCCCN1` (racemic) came in with a Ki of 1.8 nM.
Take `COC(=O)[C@H](c1ccc(N)cc1)[C@H]1CCCCN1` (racemic): the affinity in assay [1], expressed as Ki, was 6.3 nM.
Still for that read-out and setting: in the case of `COC(=O)[C@H](c1ccc([N+](=O)[O-])cc1)[C@H]1CCCCN1` (racemic) it was 77 nM.
In assay [1], `COC(=O)[C@H](c1ccc(N=[N+]=[N-])c(I)c1)[C@H]1CCCCN1` (racemic) had a Ki of 4 nM. Besides, the result in assay [2] was Active. For the same compound, the result in assay [3] and in assay [4] was inactive.
For `COC(=O)[C@H](c1ccc(N)c(I)c1)[C@H]1CCCCN1` (racemic), the Ki in assay [1] came out at 9.1 nM. This lies in the single-digit nanomolar range.
In turn, `COC(=O)[C@H](c1ccc(N=[N+]=[N-])cc1)[C@H]1CCCCN1` (racemic) displayed a Ki in assay [1] of 35 nM. This Ki is about 3.8-fold higher than that of the compound before.
